One series concerns the target T1, xanthine oxidase (XO) (Bos taurus, UniProt P80457).
T1 construct: 20 µL of 0.1 unit XO enzyme (bovine milk) in buffer; from tissue; host or cells: bovine milk
Description: Assay of XO-inhibitory activity and kinetics (oxidation of xanthine to uric acid, absorbance at 295 nm). It counts as biochemical, bovine milk. The conditions noted are these: for Xanthine Oxidase Kinetic Mode / Ki: Lineweaver–Burk and Dixon plots; for Ki: read-out: Xanthine Oxidase Ki (inhibition constant); for IC50: isolated compounds and positive controls, substrate xanthine, pH 7.5, 37 °C; for inhibition at 25 µM: read-out: Xanthine Oxidase Inhibition %. The protocol:
The extracts from four different polar solvents (EtOAc, MeOH, 50% MeOH, and H2O) were tested for their enzyme-inhibitory activities against XO. The enzyme assay followed the oxidation of xanthine to uric acid at 295 nm spectrophotometrically. […] In addition to ^13C-NMR data, various spectroscopic data were used to identify the structures. […]
XO-inhibitory activity was assayed spectrophotometrically on a SpectraMax M2 microplate reader, using a previously reported experimental procedure with a slight modification. First, 135 µL of 100 mM sodium pyrophosphate buffer (HCl, pH 7.5), 20 µL of 0.1 unit XO enzyme (bovine milk) in buffer, and 5 µL of samples (test extracts or compounds) in dimethylsulfoxide were mixed at 37 °C. The reaction was started by adding 40 µL of substrate (0.5 mM xanthine) in buffer to the mixture. The reaction mixture (200 µL) was incubated at 37 °C in a 300 µL well plate and the UV absorbance at 295 nm was determined every 1 min up to 5 min.

One may read the Ki as the dissociation constant of the complex between target and ligand, obtained from inhibition or displacement. A word on the IC50: it is the point on the concentration scale where inhibition reaches its midpoint. High values mean weaker potency in that assay, low ones greater potency in that assay. The inhibition is the share of the control response that was lost under treatment. The term melting point denotes the temperature of the solid-liquid transition.

Molecules are shown by their SMILES. Read-outs that look alike come from different tables or passages of the source.

T1 sequence (P80457 whole entry): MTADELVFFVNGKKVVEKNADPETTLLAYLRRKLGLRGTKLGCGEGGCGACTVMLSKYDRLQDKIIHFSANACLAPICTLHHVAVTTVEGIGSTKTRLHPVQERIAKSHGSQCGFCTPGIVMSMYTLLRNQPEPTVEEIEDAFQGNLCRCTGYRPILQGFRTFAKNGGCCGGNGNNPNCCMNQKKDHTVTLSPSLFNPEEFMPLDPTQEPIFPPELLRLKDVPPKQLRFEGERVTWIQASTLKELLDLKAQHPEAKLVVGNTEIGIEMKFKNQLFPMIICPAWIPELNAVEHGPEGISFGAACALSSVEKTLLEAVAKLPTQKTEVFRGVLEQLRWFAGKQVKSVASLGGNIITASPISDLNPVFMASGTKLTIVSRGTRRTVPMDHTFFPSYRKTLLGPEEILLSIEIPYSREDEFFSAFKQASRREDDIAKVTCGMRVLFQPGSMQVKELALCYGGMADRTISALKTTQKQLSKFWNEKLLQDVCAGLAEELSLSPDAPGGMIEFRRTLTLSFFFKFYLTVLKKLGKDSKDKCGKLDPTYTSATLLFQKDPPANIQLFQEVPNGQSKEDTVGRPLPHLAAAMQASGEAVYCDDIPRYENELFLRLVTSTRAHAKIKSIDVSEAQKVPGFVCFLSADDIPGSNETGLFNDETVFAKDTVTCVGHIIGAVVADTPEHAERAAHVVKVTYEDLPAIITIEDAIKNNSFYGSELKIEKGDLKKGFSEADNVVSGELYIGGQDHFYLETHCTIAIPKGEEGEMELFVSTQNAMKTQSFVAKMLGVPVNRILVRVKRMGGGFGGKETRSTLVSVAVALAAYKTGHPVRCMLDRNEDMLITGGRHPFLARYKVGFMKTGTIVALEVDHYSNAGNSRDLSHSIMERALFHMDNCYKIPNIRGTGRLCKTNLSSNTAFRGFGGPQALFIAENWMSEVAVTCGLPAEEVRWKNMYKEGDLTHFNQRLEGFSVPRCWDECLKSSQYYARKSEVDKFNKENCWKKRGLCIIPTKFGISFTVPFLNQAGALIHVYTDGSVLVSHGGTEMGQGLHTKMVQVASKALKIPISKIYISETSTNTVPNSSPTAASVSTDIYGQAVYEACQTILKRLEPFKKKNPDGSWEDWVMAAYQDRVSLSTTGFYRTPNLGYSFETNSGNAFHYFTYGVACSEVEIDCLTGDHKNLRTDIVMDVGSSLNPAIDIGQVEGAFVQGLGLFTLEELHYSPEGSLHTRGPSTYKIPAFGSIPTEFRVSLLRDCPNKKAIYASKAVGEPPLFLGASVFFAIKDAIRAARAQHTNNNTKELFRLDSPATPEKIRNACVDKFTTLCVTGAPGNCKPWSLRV

Turning to `CCCC(=O)C1=C(O)C(C)(C)C(O)=C(Cc2c(O)c(C)c(O)c(C(=O)CCC)c2O)C1=O` [Compound 4, 2-butyryl-6-(3-butyryl-2,4,6-trihydroxy-5-methylbenzyl)-3,5-dihydroxy-4,4-dimethylcyclohexa-2,5-dienone], at xanthine oxidase (XO), the “Xanthine Oxidase Kinetic Mode” value is “Noncompetitive”, the Ki turned out to be 21.1 µM and the IC50 is 20.9 ± 0.9 µM. For the same compound, the inhibition at 25 µM at xanthine oxidase (XO) (sample concentration 25 µM) worked out at 54.4 ± 1.5%.

With `CCCC(=O)c1c(O)c(C)c(O)c(CC2=C(O)C(C)(C)C(O)=C(C(C)=O)C2=O)c1O` [Compound 2, flavaspidic acid AB], the melting point lay within 158 to 160 °C. Moreover, at xanthine oxidase (XO), the “Xanthine Oxidase Kinetic Mode” value was “Noncompetitive”, the Ki was determined as 11.7 µM and the IC50 was determined as 10.2 ± 0.5 µM. In addition, the inhibition at 25 µM at xanthine oxidase (XO) (sample concentration 25 µM) was determined as 68.1 ± 1.3%.

For `Oc1ncnc2[nH]ncc12` [Allopurinol, reference compound], on xanthine oxidase (XO), the “Xanthine Oxidase Kinetic Mode” value is “Competitive” and the inhibition at 25 µM was found to be 82.5 ± 1.7%.

`O=c1[nH]c(=O)c2c[nH]nc2[nH]1` [Oxypurinol, reference compound] came in with a half-inhibitory concentration (IC50) against xanthine oxidase (XO) of 43.1 ± 0.8 µM. The inhibition at 25 µM at xanthine oxidase (XO) (sample concentration 25 µM) worked out at 42.2 ± 1.2%.

`CCC(=O)c1c(O)c(C)c(O)c(CC2=C(O)C(C)(C)C(O)=C(C(C)=O)C2=O)c1O` [Compound 1, flavaspidic acid AP]: on xanthine oxidase (XO), the “Xanthine Oxidase Kinetic Mode” value was “noncompetitive inhibitor”, the Ki is 7.8 µM and the concentration for half-maximal inhibition (IC50) was 6.3 ± 0.4 µM. Also, the “efficacy of 1 relative to 4 (fold, from IC50)” value at xanthine oxidase (XO) (XO inhibition, compared with 4 (IC50 = 20.9 µM)) was around 4 fold. Besides, the “Reversibility of XO inhibition” value on xanthine oxidase (XO) (activity versus enzyme concentration (0-0.2 units/mL) at different inhibitor concentrations) is listed as “reversible inhibitor”. Further, the inhibition at 25 µM on xanthine oxidase (XO) (sample concentration 25 µM) stood at 79.6 ± 1.6%.

`CCCC(=O)c1c(O)c(C)c(O)c(CC2=C(O)C(C)(C)C(O)=C(C(=O)CC)C2=O)c1O` [Compound 3, flavaspidic acid PB] showed a melting point of 156 to 158 °C. At xanthine oxidase (XO), the “Xanthine Oxidase Kinetic Mode” value is given as “Noncompetitive”, the Ki was 15.3 µM and the half-inhibitory concentration (IC50) was determined as 13.2 ± 0.6 µM. Further, on xanthine oxidase (XO) (sample concentration 25 µM), the inhibition at 25 µM turned out to be 62.1 ± 0.9%.

The values are drawn from PMC7796287, “Phloroglucinol Derivatives from Dryopteris crassirhizoma as Potent Xanthine Oxidase Inhibitors” (Molecules, 2020).
